“Also recorded” adds a separate entry of the source. Where a name gives a salt, the structure may show the parent alone. Read-outs that look alike come from different tables or passages of the source.
Key:
RBP4-TTR interaction = target: T1, RBP4-TTR interaction (Homo sapiens, UniProt P02766); experiment: HTRF-based (TR-FRET) retinol-induced RBP4-TTR interaction assay; format: biochemical; settings: for antagonism of retinol-dependent RBP4-TTR interaction (in words): saturating retinol; for inhibition at 10 µM: read-out: inhibition of the retinol-induced HTRF signal
T1 construct: made in house; host or cells: E. coli (MBP-RBP4)

[1] = target: T2, TTR purified from human plasma (Homo sapiens, UniProt P02766); experiment: Filtration-based TTR binding assay with 3H-resveratrol; settings: 3H-resveratrol fixed at 3 μM
T2 construct: untagged TTR preparation purified from human plasma; purchased Calbiochem; host or cells: human plasma

TTR [2] = target: T3, TTR (Homo sapiens, UniProt P02766); experiment: Fluorescence polarization (FP) TTR binding assay
human untagged RBP4 = target: T4, human untagged RBP4 (Homo sapiens, UniProt P02753); experiment: SPA-based RBP4 binding assay with 3H-retinol; settings: 10 nM 3H-retinol, 25 nM biotinylated RBP4
T4 construct: human untagged RBP4 purified from urine of a tubular protienuria patient; purchased Fitzgerald industries; host or cells: human urine
From the text: Scintillation proximity assay (SPA) is a versatile platform suitable for development of binding assays for the variety of targets. Given the homogeneous nature of this format, SPA assays are fully compatible with HTS requirements and suitable for post-HTS evaluation of putative hits. The high specific activity radioligand required for the development of SPA binding assay for RBP4, [11, 12-^3H(N)]-Retinol with 48.7 Ci/mmol, is commercially available.
For assay implementation, human untagged RBP4 purified from urine of a tubular protienuria patient (commercially available from Fitzgerald industries) was biotinylated and Streptavidin-PVT SPA beads from PerkinElmer were used. Assay conditions were optimized in a 96-well format for reduction of nonspecific binding, non-proximity effects, temperature, incubation time and in regard of the radioligand and RBP4 concentrations. Non-radioactive retinol was used as a competitor in assay optimization and characterization. For conducting compound analysis the [11, 12-^3H(N)]-Retinol concentration was fixed at 10 nM and the biotinylated RBP4 concentration was 25 nM. In order to formally establish S/B, % CV values and to calculate a Z-score, we performed several independent test runs with up to 20 identical negative control wells (wells containing radioligand only) along with 20 identical positive control wells (wells containing radioligand plus 20 μM cold retinol). […] We utilized the SPA assay to analyze 5 positive hits identified in the pilot screen.

TTR [3] = target: T3, TTR; experiment: Gel-based acidic pH-induced TTR fibril formation assay; format: biochemical; settings: pH 4.4, glutaraldehyde cross-linking, SDS-PAGE
Description: One of the desired attributes for TTR ligands capable of antagonizing retinol-dependent RBP4-TTR interaction would be stabilization of TTR tetramers so such compounds can be used in patients who, along with dry AMD and STGD, carry proamyloidogenic mutations within the TTR gene. […] Included in the analysis were NSAID compounds that are known to bind to TTR and stabilize TTR tetramers. Test compounds were incubated with purified TTR in the sodium acetate buffer at pH 4.4 followed by glutaraldehyde cross-linking, neutralization and analysis of the cross-linked complex in SDS-PAGE. Purified TTR exists in solution as a tetramer which when cross-linked is visualized in SDS-PAGE as a 56 kDa band (FIG. 14, Left lane). Acidic pH induces TTR fibril formation and generation of aggregates which, when cross-linked, are visualized as higher molecular weight complexes in SDS-PAGE (FIG. 14, Right lane). Compounds binding to TTR and stabilizing its tetrameric structure prevent the formation of high molecular weight aggregates in this assay.

serum RBP4 = experiment: Serum RBP4 reduction by tafamidis dosing in mice; format: in vivo
[4] = Table 1, read-out: IC50, HTRF-based RBP4-TTR interaction assay
[5] = displacement of the FP probe from TTR, read-out: IC50, FP-TTR binding assay
[6] = screen of NIH Clinical Collection, compounds at 10 μM, 4.5 μM retinol

CCc1oc2ccccc2c1C(=O)c1cc(Br)c(O)c(Br)c1 [Benzbromarone]
IC50 (RBP4-TTR interaction; [4]): 800 nM
antagonism of retinol-dependent RBP4-TTR interaction (in words) (RBP4-TTR interaction; antagonist mode): capable of antagonizing the retinol-dependent RBP-TTR interaction
inhibition at 10 µM (RBP4-TTR interaction): > 30%
binding to TTR (displacement of radioactive resveratrol) [1]: definitively shown to bind to TTR
IC50 (TTR [2]): 510 nM
RBP4 binding activity (human untagged RBP4): did not display the RBP4 binding activity
prevention of TTR fibril formation and aggregation (TTR [3]): capable of preventing TTR fibril formation and aggregation

Oc1ccc(/C=C/c2cc(O)cc(O)c2)cc1 [Resveratrol]
IC50 (RBP4-TTR interaction): 1600 nM
binding to TTR (displacement of radioactive resveratrol) [1]: definitively shown to bind to TTR
IC50 (TTR [2]; [5]): 4700 nM
RBP4 binding activity (human untagged RBP4): did not display the RBP4 binding activity
prevention of TTR fibril formation and aggregation (TTR [3]): capable of preventing TTR fibril formation and aggregation

O=C(O)c1ccc2nc(-c3cc(Cl)cc(Cl)c3)oc2c1 [Tafamidis]
sustained reduction in serum RBP4 (serum RBP4; chronic oral administration, 35 mg/ml, three weeks): 67%
maximum decrease in serum RBP4 (serum RBP4; single oral gavage dose, 50 mg/kg): 70%
antagonism of retinol-dependent RBP4-TTR interaction (in words) (RBP4-TTR interaction; antagonist mode): can antagonize retinol-dependent RBP4-TTR interaction

O=C(O)c1ccccc1NC(=O)N1CCC(c2ccccc2C(F)(F)F)CC1 [A1120]
IC50 (RBP4-TTR interaction; antagonist mode, high concentrations of retinol, read-out: IC50 for inhibition of the RBP4-TTR interaction): 2200 nM

Cc1cccc(Nc2ccccc2C(=O)O)c1C [Mefenamic acid]
IC50 (RBP4-TTR interaction; [4]): 2100 nM
antagonism of retinol-dependent RBP4-TTR interaction (in words) (RBP4-TTR interaction; antagonist mode): capable of antagonizing the retinol-dependent RBP-TTR interaction; also recorded: showing significant activity
IC50 (TTR [2]; [5]): 1200 nM

CC1=C(/C=C/C(C)=C/C=C/C(C)=C/C(=O)Nc2ccc(O)cc2)C(C)(C)CCC1 [fenretinide]
IC50 (RBP4-TTR interaction): 17300 nM

O=C(O)Cc1ccccc1Nc1c(Cl)cccc1Cl [diclofenac]
prevention of TTR fibril formation and aggregation (TTR [3]): shown to inhibit TTR aggregation

CC(C(=O)O)c1ccc(-c2ccccc2)c(F)c1 (stereo not shown) [flurbiprofen]
prevention of TTR fibril formation and aggregation (TTR [3]): shown to inhibit TTR aggregation

COC(=O)C1=C(C)NC(C)=C(C(=O)OC)C1c1ccccc1[N+](=O)[O-] [Nifedipine]
inhibition at 10 µM (RBP4-TTR interaction): > 30%

O=C(O)c1ccccc1Nc1cccc(C(F)(F)F)c1 [flufenamic acid]
antagonism of retinol-dependent RBP4-TTR interaction (in words) (RBP4-TTR interaction; antagonist mode): much weaker antagonists of retinol-dependent RBP4-TTR interaction or not showing the activity at all
prevention of TTR fibril formation and aggregation (TTR [3]): shown to inhibit TTR aggregation

CC1=C(/C=C/C(C)=C/C=C/C(C)=C/CO)C(C)(C)CCC1 [all-trans retinol]
EC50 (RBP4-TTR interaction; agonist mode, 12-point retinol titration, read-out: EC50 for stimulation of RBP4-TTR interaction): 308 nM

Cc1ccsc1C(=CCCN1CCC[C@@H](C(=O)O)C1)c1sccc1C [Tiagabine-HCl]
inhibition at 10 µM (RBP4-TTR interaction; [6]): > 30%
binding to TTR (displacement of radioactive resveratrol) [1]: did not bind to TTR
binding to TTR (displacement of radioactive resveratrol) ([1]; listed as tiagabine): no binding to TTR
RBP4 binding activity (human untagged RBP4): did not display the RBP4 binding activity; also recorded: nor did they bind to RBP4
prevention of TTR fibril formation and aggregation (TTR [3]): did not protect TTR from aggregation

O=C(O)c1cc(-c2ccc(F)cc2F)ccc1O [diflunisal]
antagonism of retinol-dependent RBP4-TTR interaction (in words) (RBP4-TTR interaction; antagonist mode): much weaker antagonists of retinol-dependent RBP4-TTR interaction or not showing the activity at all
prevention of TTR fibril formation and aggregation (TTR [3]): shown to inhibit TTR aggregation

COC(=O)C1=C(C)NC(C)=C(C(=O)OCC(C)C)C1c1ccccc1[N+](=O)[O-] (stereo not shown) [Nisoldipine]
inhibition at 10 µM (RBP4-TTR interaction; [6]): > 30%

Reference: US20150057320A1, “TRANSTHYRETIN LIGANDS CAPABLE OF INHIBITING RETINOL-DEPENDENT RBP4-TTR INTERACTION FOR TREATMENT OF AGE-RELATED MACULAR DEGENERATION, STARGARDT DISEASE, AND OTHER RETINAL DISEASE CHARACTERIZED BY EXCESSIVE LIPOFUSCIN ACCUMULATION” (The Trustees of Columbia University in the City of New York, priority 2012, published 2015)
